Each structure is given as a SMILES string. Like-named read-outs stand apart in the source and are kept apart here. Bounds are passed on as bounds.

Usually EC50 stands for the concentration needed to bring the measured effect to its halfway point. The fraction unbound is the share of the substance not bound to proteins or other matrix. The logD is the decadic logarithm of the distribution of all forms, ionised or not, between an organic phase and buffer at a given pH. What is called Solubility is the dissolved amount per volume that the medium holds.

The subject of one data set is P. fal. In words: P. fal assay of Table 13 (strain not given). The class given is cell-based, P. falciparum.
The test system of another data set is L. major amastigote. In words: L. major amastigote assay. The class given is cell-based.
Another data set deals with L. major promastigote. The data set can be described thus: L. major promastigote assay. The class given is cell-based.
Another data set has as its system HepG2 cells. The data set can be described thus: HepG2 cell toxicity (MTT) assay. Format: cell-based. The note with it: Table 13; read-out: HepG2 TC50.
Data set [1] concerns T. brucei brucei Lister 427. In words: Trypanosome replication assay. The class given is cell-based, Trypanosoma brucei brucei. The following applies: concentration giving 50% inhibition of growth of T brucei brucei Lister 427 cells, 48 h, values ±7%, read-out: Tbb EC50.
For a further data set, the system named is T. cruzi. The data set can be described thus: T. cruzi growth inhibition. Format: cell-based, Trypanosoma cruzi.
Assay in data set [2]: not given
This is another data set of the same source.

Data set [3] is described as follows: Male rat hepatocytes CLint.
Data set [4] is described as follows: Protein binding (Table 14). The note with it: plasma.
A short description of the next data set: logD. The class given is physicochemical.
Data set [5] is described as follows: Thermodynamic aqueous solubility. The class given is physicochemical.
Data set [6] is described as follows: Human liver microsomes CLint. On the technique in general: Microsomes from liver hold many membrane-bound enzymes, among them those of drug oxidation.

`CN1CCCN(S(=O)(=O)c2ccc(-c3ccc4ncc(C#N)c(Nc5ccc(OCc6cccc(F)c6)c(Cl)c5)c4c3)cc2)CC1` [NEU-924]: the “Human liver microsomes median CLint” value was determined as 151.8 µL/min/mg. The same molecule showed an EC50 with P. fal of 47 nM. The response in the data set with L. major amastigote was half-maximal at 1600 nM (EC50). The same molecule yielded a 50% effective concentration (EC50) in the data set on L. major promastigote of 920 nM. The CC50 with HepG2 cells was above 15 µM. Besides, the EC50 in [1] was determined as 350 nM. A half-maximal response with T. cruzi (EC50) required 0.09 µM. Besides, the “Male rat hepatocytes median CLint” value in data set [2] is given as 37.95 μl/min/1E6 cells.

Take `O=S(=O)(c1ccc(-c2ccc3nccc(Nc4ccc(OCc5ccccc5)c(Cl)c4)c3c2)cc1)N1CCOCC1` [NEU-945, N-(4-(Benzyloxy)-3-chlorophenyl)-6-(4-(morpholinosulfonyl)phenyl)quinolin-4-amine]: the concentration for a half-maximal effect (EC50) was 32 nM in the data set with P. fal (Plasmodium falciparum); above 3000 nM in the data set on L. major amastigote (Leishmania major); 200 nM in the data set on L. major promastigote (Leishmania major); 2100 nM in data set [1] (Trypanosoma brucei); 49 µM in the data set on T. cruzi (Trypanosoma cruzi). In data set [3], the “Male rat hepatocytes median CLint” value stood at 13.93 μl/min/1E6 cells. The molecule also yielded a fraction unbound in [4] below 0.01. The same molecule yielded a log distribution coefficient (logD) in “logD” of 3.5. Further, the CC50 in the data set with HepG2 cells was above 5 µM. For the same molecule, the Solubility in data set [5] was below 1 µM. In addition, in data set [6], the “Human liver microsomes median CLint” value was found to be 78.87 µL/min/mg.
